The text below walks through data of patent publication US20090264310A1, “SCREENING METHOD FOR THE ISOLATION OF CENTROSOMAL CLUSTER-INHIBITORS AS ANTI-CANCER AGENTS” (priority 2006, published 2009).

The test system of data set [1] is SCC114 cells. The experiment in a line: Dynein and NuMA localization on mitotic spindles (immunofluorescence). It counts as cell-based, human. The note with it: SCC114, 100 μM griseofulvin, 24 hours. As for the experimental part: Cells grown on glass coverslips were fixed in −20° C. methanol/acetone (1:1) for 7 min. After blocking non-specific sites with 10% goat serum (Sigma)/PBS for 5 min, the cells were incubated with primary antibodies for 1 h. Unlabelled antibodies were used at following dilutions: mouse monoclonal antibody to Eg5, 1:500 (Transduction Laboratories, Lexington, Ky.); mouse monoclonal antibody to γ-tubulin (GTU-88) at 1:300, rabbit polyclonal antibody to γ-tubulin at 1:100, and mouse monoclonal antibody to α-tubulin at 1:500 (Sigma, Deisenhofen, Germany); rabbit anti-phospho-histone H3, 1:500 (Upstate Biotechnology, Lake Placid, N.Y.); mouse monoclonal antibody to dynein, 1:50 (Chemicon International, Hampshire, UK); mouse monoclonal antibody to NuMA, 1:50 (Calbiochem, Darmstadt, Germany). Coverslips were then washed three times with PBS and incubated with secondary antibodies for 25 min before adding DAPI to a final concentration of 0.1 μg/ml (Sigma) to the antibody dilution for additional 5 min. […] Immunostained cells were examined using a Zeiss Axiovert 200 M fluorescence microscope (Göttingen, Germany) and images were processed with Photoshop (Adobe, München, Germany) software. […]

Data set [2] is described as follows: Colorimetric MTT cytotoxicity assay. It counts as cell-based. The conditions noted are these: human, SCC114 cells, SCC114, 0-100 μM, read-out: IC50 cytotoxicity / half-maximal inhibition of cell growth. As for the experimental part:
(§1) The cytotoxicity assay was performed as previously described (53). Briefly, MTT (Thiazolyl Blue Tetrazolium Blue; Sigma) was dissolved in PBS at 5 mg/ml and filtered. 0.3×10^5 cells were plated in 96 well plates (Nunc) 24 h before addition of griseofulvin. Cells were then treated with different concentrations of griseofulvin for 22 h. Stock MTT solution (10 μl per 100 μl medium) was added to all wells, and plates were incubated additional 2 h at 37° C. Medium was discarded, 200 μl DMSO was added to each well and incubated for 20 minutes at 37° C. When all crystals were dissolved, the plates were read on a microtiterplate […] reader (Tecan, Crailsheim, Germany), using a test wavelength of 650 nm and a reference wavelength of 750 nm.
Background: Tetrazolium dyes change colour on reduction, which living cells bring about.

The subject of data set [3] is BJ fibroblasts. As to the kind of experiment: Colorimetric MTT cytotoxicity assay. The conditions noted are these: Homo sapiens, Fibroblast, highest concentration 100 μM, read-out: growth inhibition. It counts as cell-based. As for the experimental part: as §1
Data set [4] has as its system N115 mouse neuroblastoma cells. The experiment in a line: Inhibition of centrosome coalescence and microtubule network in interphase cells (immunofluorescence). The conditions noted are these: N115, 50 μM griseofulvin, 24 hours. It counts as cell-based. As for the experimental part: (§2) All cell lines (BJ fibroblasts (available from ATCC), SCC114 (18), HeLa (ATCC), MCF7 (ATCC), N115 and U2OS (ATCC) were cultured in Dulbecco's modified Eagle's Medium (DMEM, PAA Laboratories, Pasching, Germany) supplemented with 10% FCS (PAA), 20 U/ml penicillin and 20 μg/ml streptomycin (Biochrom, Berlin, Germany) at 37° C., 5% CO2. SCC114-D1 cells stably expressing GFP-α-tubulin were generated by transfection (Fugene 6, Roche Diagnostics, Mannheim, Germany) of the transgene in pEGFP-C1 (Clontech, Heidelberg, Germany) and maintained under selective pressure by addition of geniticin (Gibco, Invitrogen, Karlsruhe, Germany) into complete medium at a concentration of […]. When indicated, griseofulvin (Sigma, Deisenhofen, Germany) was added to culture medium at several concentrations (0-100 μM), and incubation was continued for 24-72 h. Griseofulvin was dissolved in DMSO (Sigma); the final DMSO concentration in all experiments was 0.1%.
Cells grown on glass coverslips were fixed in −20° C. methanol/acetone (1:1) for 7 min. After blocking non-specific sites with 10% goat serum (Sigma)/PBS for 5 min, the cells were incubated with primary antibodies for 1 h. […] Immunostained cells were examined using a Zeiss Axiovert 200 M fluorescence microscope (Göttingen, Germany) and images were processed with Photoshop (Adobe, München, Germany) software. […]

Data set [5] deals with SCC114 cells. The experiment in a line: Induction of multipolar mitotic spindles (immunofluorescence). The note with it: SCC114, 20 μM griseofulvin, 24 hours. The data set is classed as cell-based, human. As for the experimental part:
as §2
(§3) Cells grown on glass coverslips were fixed in −20° C. methanol/acetone (1:1) for 7 min. After blocking non-specific sites with 10% goat serum (Sigma)/PBS for 5 min, the cells were incubated with primary antibodies for 1 h. Unlabelled antibodies were used at following dilutions: mouse monoclonal antibody to Eg5, 1:500 (Transduction Laboratories, Lexington, Ky.); mouse monoclonal antibody to γ-tubulin (GTU-88) at 1:300, rabbit polyclonal antibody to γ-tubulin at 1:100, and mouse monoclonal antibody to α-tubulin at 1:500 (Sigma, Deisenhofen, Germany); rabbit anti-phospho-histone H3, 1:500 (Upstate Biotechnology, Lake Placid, N.Y.); mouse monoclonal antibody to dynein, 1:50 (Chemicon International, Hampshire, UK); mouse monoclonal antibody to NuMA, 1:50 (Calbiochem, Darmstadt, Germany). Coverslips were then washed three times with PBS and incubated with secondary antibodies for 25 min before adding DAPI to a final concentration of 0.1 μg/ml (Sigma) to the antibody dilution for additional 5 min. The following fluorchrome-conjugated secondary antibodies were used: rabbit Alexa 488, 1:1000 (Molecular Probes, Invitrogen, Karlsruhe, Germany) and mouse Cy3, 1:400 (Jackson ImmunoResearch Laboratories, West Grove, PN). Coverslips were washed three times with PBS, rinsed shortly with water and post-fixed in absolute ethanol for 1 min. Airdryed Coverslips were embedded in Vectashield (Vector Laboratories, Burlingame, Calif.) or Fluoromount G (Southern Biotech, Birmingham, Ala.). Immunostained cells were examined using a Zeiss Axiovert 200 M fluorescence microscope (Göttingen, Germany) and images were processed with Photoshop (Adobe, München, Germany) software.

For another data set, the system named is U2OS cells. The data set is described as above. The data set is classed as cell-based, human. The conditions noted are these: 100 μM griseofulvin, 24 hours. As for the experimental part:
as §2, §3

The subject of the next data set is MCF7 cells. The description is as above. The data set is classed as cell-based, human. The note with it: 24 hours. As for the experimental part:
as §2, §3

Data set [6] relates to BJ fibroblasts. The data set is described as above. The data set is classed as cell-based, human. The note with it: 24 hours. As for the experimental part:
as §2, §3

The test system of data set [7] is HeLa cells. The data set is described as above. It counts as cell-based, human. The conditions noted are these: 100 μM griseofulvin, 24 hours. As for the experimental part: as §2, §3
Data set [8] concerns SCC114 cells. As to the kind of experiment: Mitotic cells by phospho-histone H3 two-parameter flow cytometry. It counts as cell-based, human. The conditions noted are these: SCC114, 35 μM griseofulvin, 24 hours (29.1% prior to treatment). As for the experimental part:
(§4) Cells were plated in 6-well plates (Greiner Bio-One, Kremsmuenster; Austria), treated 24 h later with different concentrations of griseofulvin and incubated for 24 h. Both attached and unattached cells were harvested and washed with PBS. For cell cycle, analysis cells were fixed in −20° C. methanol (70%) for at least 45 min. Cells were then washed with PBS and incubated in propidiumodide buffer containing 0.01 mg/ml propidiumiodide (Molecular Probes) and 0.25 mg/ml RNase A (Roth, Karlsruhe, Germany) for 30 min. For the histone H3-assay, cells were fixed in 70% ethanol, incubated with 0.25% Triton X-100/PBS for 15 min on ice, and stained with rabbit antibody to phospho-histone H3 (1:500; Upstate Biotechnology) for 2 h at room temperature, followed by 1 h of incubation with Alexa 488 conjugated anti-rabbit IgG (1:1000; Molecular Probes). DNA was counterstained with propidiumiodide buffer (see above) for 30 minutes at 37° C. Cells were analyzed with a FACScan flow cytometer (Becton Dickinson, Heidelberg, Germany) using CellQuest Software.

For data set [9], the system named is BJ fibroblasts. The description is as above. The data set is classed as cell-based, human. The note with it: 35 μM griseofulvin, 24 hours (4.1% prior to treatment). As for the experimental part:
as §4

For data set [10], the system named is SCC114 cells. As to the kind of experiment: G2/M cell cycle arrest, propidium iodide flow cytometry. The data set is classed as cell-based, human. The note with it: SCC114, 20 μM griseofulvin, 24 hours. As for the experimental part:
as §4

Data set [11] has as its system BJ fibroblasts. Described as above. The data set is classed as cell-based, human. The note with it: 20 μM griseofulvin, 24 hours. As for the experimental part: as §4
The test system of data set [12] is HeLa cells. The data set is described as above. The data set is classed as cell-based, human. The conditions noted are these: 20 μM griseofulvin, 24 hours. As for the experimental part:
as §4

Molecules are shown by their SMILES.

A word on the inhibition: it is how much of the control response was suppressed.

In the case of `COC1=CC(=O)C[C@@H](C)[C@]12Oc1c(Cl)c(OC)cc(OC)c1C2=O` [griseofulvin], the “percentage of multipolar spindles labelled with antibody to NuMA” value with SCC114 cells [1] is recorded as 99.5±0.5%. For the same compound, in the data set on SCC114 cells [1], the “percentage of multipolar spindles labelled with antibody to dynein” value is 99±1%. The IC50 at 22 h in [2] was 35 µM. Moreover, the inhibition at 100 µM with BJ fibroblasts [3] turned out to be 25 ± 1%. Also, the “percentage of interphase cells harbouring only short and convoluted microtubules” value in [4] stood at 98%. For the same compound, in [4], the “percentage of interphase cells lacking clustering of centrioles into a single aggregate” value is 68%. Also, the “percentage of multipolar spindles” value with SCC114 cells [5] was determined as 53%; in the data set with MCF7 cells (MCF7, 20 μM griseofulvin), 20%. Also, the “percentage of mitoses multipolar” value was “more than 85%” in the data set on U2OS cells; “more than 85%” in the data set with MCF7 cells (MCF7, 100 μM griseofulvin); “more than 85%” in the data set on HeLa cells [7]. Moreover, in the data set on BJ fibroblasts [6] (BJ fibroblasts, 20 μM griseofulvin), the “percentage of metaphases multipolar” value is 3%. Besides, in the data set on BJ fibroblasts [6] (normal diploid fibroblasts, 100 μM griseofulvin), the “percentage of mitotic cells harbouring bipolar spindles” value is on record as 87%. Further, the “percentage of cells in mitosis” value with SCC114 cells [8] was determined as 56.4%; with BJ fibroblasts [9], 5.5%. Also, the results for the “percentage of cells arrested in G2/M phase” value with SCC114 cells [10] and with HeLa cells [12] were 91.2±3.9% and 65.6±7.6%, respectively. In the data set with BJ fibroblasts [11], the “percentage of cells in G2/M” value was 19.1±1.4%.
